Read-outs that look alike come from different tables or passages of the source. Square brackets hold non-standard residues; d marks the D form. Peptide text beside a SMILES is read from it. * marks the point of attachment. Sta = CC(C)C[C@H](N)[C@@H](O)CC(=O)O; Isovaleryl = CC(C)CC(=O)*; Cbz = O=C(OCc1ccccc1)*
Columns and labels:
C6 cells = test: C6 cell spreading on PLYS or CNS myelin with protease inhibitors; format: cell-based, rat; settings: for Spreading on: PLYS (% of control on PLYS) / Spreading on: CNS (% of control on PLYS) / activity at 300 µM: 150 minutes; for effect on C6 cell spreading on CNS myelin: Table X; for activity at 300 µM / inhibition at 300 µM: Rattus norvegicus; for activity at 300 µM: C6, 2.5 h; for inhibition at 300 µM: C6
Procedure: Rat C6, mouse NIH 3T3 and B16 cells were cultured in Dulbecco's modified Eagle's medium (DMEM) supplemented with 10% fetal calf serum (FCS), usually to maximally 70-80% confluency. Cells were harvested with a short trypsin treatment (0.1% in Ca^2+ /Mg^2+ -free Hank's medium for 90 seconds) stopped by addition of FCS in excess, collected by centrifugation. Cells were resuspended in either DMEM/FCS or defined serum-free medium (MEM) and used for experiments. Dissociated rat CNS glial cells were prepared starting from optic nerves of 6-7 days old Lewis rats as described in Section 6.1.1, supra and plated into poly-D-lysine (PLYS) coated wells (100 mm^2, 100 μl medium) at a density of 20,000 cells per well. The culture medium was an enriched L15 medium with 5% rat serum, penicillin and streptomycin. C6, 3T3 and B16 cells were added to 2 day old cultures at a concentration of 30,000 cells per well, incubated for two hours and fixed with warm 4% formalin in phosphate buffer. Inhibitory oligodendrocytes were identified by double labelling using the specific antibodies O1 and O4 (see Section 6.1.3, supra).
(§1) Myelin from rat spinal cord (CNS) or sciatic nerve (PNS) purified on a discontinuous sucrose gradient as described in Section 6.1.5., was dried overnight onto PLYS coated wells (20 μg protein/well of 100 mm^2 surface). Unbound membranes were removed by three washes with Ca^2+ /Mg^2+ -free Hank's solution. Myelin coated wells were immediately used in substrate testing assays by the addition of 9,000 cells (C6, 3T3, or B16) per cm^2. Alternatively, we used extracted CNS myelin protein, or SDS-PAGE purified 35 and 250 kD inhibitory proteins reconstituted in liposomes (see Section 7.1.5, supra). Experiments were scored at different time points using a phase contrast microscope equipped with a photocamera. Quantifications were done using a surface integration program; three arbitrary fields were photographed for each well at a magnitude of 80×, at least 25 cells per picture were measured. Each point represents the mean of at least 3 wells±SEM. Results are expressed as μ^2 of projected cell surface, or as degree, which was calculated by subtracting from the projected surface value of a spreading cell, the surface value of a completely spheric cell.

3T3 cells = test: Treatment of CNS myelin with C6 plasma membranes, then 3T3 spreading and 3H-thymidine incorporation; format: cell-based, mouse; settings: blockers added to C6 plasma membranes
Procedure: as §1
C6 cells grown to 80% confluency were washed twice with Hank's medium, and harvested in 20 ml 8.5% sucrose, 50 mM NaCl, 10 mM Tris buffer, pH 7.4, using a rubber policeman. After mechanical homogenization through a series of needles of decreasing size, a low purity plasma membrane fraction was obtained by centrifugation (5 minutes at 3000× g, 10 minutes at 8000× g, and then 2 hours at 100,000× g). A higher purity fraction was isolated by loading the material on a discontinuous sucrose gradient, containing 50 mM NaCl, 10 mM Tris, pH 7.4 (Quigley, 1976, J. Cell Biol. 71: 472-486). 20-40% sucrose interphase (C6 plasma membranes fraction) and 40-60% sucrose interphase (C6 mitochondrial fraction) were collected, washed in Hank's medium and resuspended in MEM.
CNS myelin coated PLYS wells were prepared as described in the previous section, but instead of being immediately tested as substrate, they were first incubated with 50 μl of C6 plasma membranes (containing 0.8 mg protein/ml MEM) at 37° for 30 minutes. Dishes were then rinsed twice with Hank's medium and immediately used as substrates for 3T3 cells. In some experiments, protease blockers were added to the membranes using 10 times concentrated solutions.

[1] = inhibitor 1.0 mM, PLYS value minus CNS myelin value
[2] = inhibitor 0.3 mM, PLYS value minus CNS myelin value
[3] = inhibitor 0.3 mM, CNS myelin, read-out: Spreading on: CNS (% of control on PLYS)

O=S(=O)(F)Cc1ccccc1 [PMSF, Phenyl methyl sulfonyl fluoride]
Spreading on: PLYS (% of control on PLYS) (C6 cells; inhibitor 4.0 mM): 100 % of control on PLYS | Spreading on: CNS (% of control on PLYS) (C6 cells; inhibitor 4.0 mM, CNS myelin): 94 % of control on PLYS | Inhibition on CNS (%) (C6 cells; inhibitor 4.0 mM, PLYS value minus CNS myelin value): 6%

CC(C)C[C@H](NC(=O)[C@@H](O)[C@H](N)Cc1ccccc1)C(=O)O [bestatine]
effect on C6 cell spreading on CNS myelin (C6 cells): did not impair C6 cell spreading | Inhibition on CNS (%) (C6 cells; inhibitor 0.1 mM): 0% | Spreading on: CNS (% of control on PLYS) (C6 cells; inhibitor 0.1 mM, CNS myelin): 104 % of control on PLYS

NC(=O)CNC(=O)CNC(=O)OCc1ccccc1 [cbz-gly-gly-NH2] (Cbz-Gly-Gly-NH2)
Spreading on: CNS (% of control on PLYS) (C6 cells; inhibitor 1.0 mM, CNS myelin): 99 % of control on PLYS | Inhibition on CNS (%) (C6 cells; [1]): 1%

CC(C)C[C@H](NC(=O)[C@H](Cc1ccccc1)NCC(=O)O)C(=O)O [cm-phe-leu, Carboxymethyl-phe-leu]
effect on C6 cell spreading on CNS myelin (C6 cells): did not inhibit C6 cell spreading | Spreading on: PLYS (% of control on PLYS) (C6 cells; inhibitor 0.5 mM): 95 % of control on PLYS | Spreading on: CNS (% of control on PLYS) (C6 cells; inhibitor 0.5 mM, CNS myelin): 92 % of control on PLYS | Inhibition on CNS (%) (C6 cells; inhibitor 0.5 mM, PLYS value minus CNS myelin value): 3%

CC(=O)N[C@@H](CC(C)C)C(=O)N[C@@H](CC(C)C)C(=O)N[C@H](C=O)CCCNC(=N)N [leupeptine]
Spreading on: PLYS (% of control on PLYS) (C6 cells; inhibitor 0.3 mM): 91 % of control on PLYS | Spreading on: CNS (% of control on PLYS) (C6 cells; inhibitor 0.3 mM, CNS myelin): 83 % of control on PLYS | Inhibition on CNS (%) (C6 cells; [2]): 8% | effect on the C6 plasma membrane effect (neutralization of CNS myelin inhibitory activity) (3T3 cells): did not inhibit this effect

CC(C)CC(=O)N[C@H](C(=O)N[C@H](C(=O)N[C@@H](CC(C)C)[C@@H](O)CC(=O)N[C@@H](C)C(=O)N[C@@H](CC(C)C)[C@@H](O)CC(=O)O)C(C)C)C(C)C [pepstatine] (Isovaleryl-VV[Sta]A[Sta]-OH)
activity at 300 µM (C6 cells; inhibitor 0.3 mM, read-out: Spreading on: PLYS (% of control on PLYS)): 98% | activity at 300 µM (C6 cells; [3]): 95% | inhibition at 300 µM (C6 cells; [2]): 3% | effect on the C6 plasma membrane effect (neutralization of CNS myelin inhibitory activity) (3T3 cells): did not inhibit this effect

CC(C)C[C@H](NP(=O)(O)O[C@@H]1O[C@@H](C)[C@H](O)[C@@H](O)[C@H]1O)C(=O)N[C@@H](Cc1c[nH]c2ccccc12)C(=O)O [phosphoramidon]
activity at 300 µM (C6 cells; [3]): 91% | inhibition at 300 µM (C6 cells; [2]): 9% | effect on C6 cell spreading on CNS myelin (C6 cells): did not impair C6 cell spreading

carbobenzoxy-glycine-phenylalanine-amide [cbz-gly-phe-NH2]
inhibition of C6 cell spreading on CNS myelin (C6 cells): 55% | Spreading on: PLYS (% of control on PLYS) (C6 cells; inhibitor 1.0 mM): 100 % of control on PLYS | Spreading on: CNS (% of control on PLYS) (C6 cells; inhibitor 1.0 mM, CNS myelin): 45 % of control on PLYS | Inhibition on CNS (%) (C6 cells; [1]): 55% | effect on the C6 plasma membrane effect (neutralization of CNS myelin inhibitory activity) (3T3 cells): completely blocked

B1: 2-macroglobulin: general protease inhibitor (protein, UniProt P01023 24-1474, looked up)
Alpha-2-macroglobulin: SVSGKPQYMVLVPSLLHTETTEKGCVLLSYLNETVTVSASLESVRGNRSLFTDLEAENDVLHCVAFAVPKSSSNEEVMFLTVQVKGPTQEFKKRTTVMVKNEDSLVFVQTDKSIYKPGQTVKFRVVSMDENFHPLNELIPLVYIQDPKGNRIAQWQSFQLEGGLKQFSFPLSSEPFQGSYKVVVQKKSGGRTEHPFTVEEFVLPKFEVQVTVPKIITILEEEMNVSVCGLYTYGKPVPGHVTVSICRKYSDASDCHGEDSQAFCEKFSGQLNSHGCFYQQVKTKVFQLKRKEYEMKLHTEAQIQEEGTVVELTGRQSSEITRTITKLSFVKVDSHFRQGIPFFGQVRLVDGKGVPIPNKVIFIRGNEANYYSNATTDEHGLVQFSINTTNVMGTSLTVRVNYKDRSPCYGYQWVSEEHEEAHHTAYLVFSPSKSFVHLEPMSHELPCGHTQTVQAHYILNGGTLLGLKKLSFYYLIMAKGGIVRTGTHGLLVKQEDMKGHFSISIPVKSDIAPVARLLIYAVLPTGDVIGDSAKYDVENCLANKVDLSFSPSQSLPASHAHLRVTAAPQSVCALRAVDQSVLLMKPDAELSASSVYNLLPEKDLTGFPGPLNDQDNEDCINRHNVYINGITYTPVSSTNEKDMYSFLEDMGLKAFTNSKIRKPKMCPQLQQYEMHGPEGLRVGFYESDVMGRGHARLVHVEEPHTETVRKYFPETWIWDLVVVNSAGVAEVGVTVPDTITEWKAGAFCLSEDAGLGISSTASLRAFQPFFVELTMPYSVIRGEAFTLKATVLNYLPKCIRVSVQLEASPAFLAVPVEKEQAPHCICANGRQTVSWAVTPKSLGNVNFTVSAEALESQELCGTEVPSVPEHGRKDTVIKPLLVEPEGLEKETTFNSLLCPSGGEVSEELSLKLPPNVVEESARASVSVLGDILGSAMQNTQNLLQMPYGCGEQNMVLFAPNIYVLDYLNETQQLTPEIKSKAIGYLNTGYQRQLNYKHYDGSYSTFGERYGRNQGNTWLTAFVLKTFAQARAYIFIDEAHITQALIWLSQRQKDNGCFRSSGSLLNNAIKGGVEDEVTLSAYITIALLEIPLTVTHPVVRNALFCLESAWKTAQEGDHGSHVYTKALLAYAFALAGNQDKRKEVLKSLNEEAVKKDNSVHWERPQKPKAPVGHFYEPQAPSAEVEMTSYVLLAYLTAQPAPTSEDLTSATNIVKWITKQQNAQGGFSSTQDTVVALHALSKYGAATFTRTGKAAQVTIQSSGTFSSKFQVDNNNRLLLQQVSLPELPGEYSMKVTGEGCVYLQTSLKYNILPEKEEFPFALGVQTLPQTCDEPKAHTSFQISLSVSYTGSRSASNMAIVDVKMVSGFIPLKPTVKMLERSNHVSRTEVSSNHVLIYLDKVSNQTLSLFFTVLQDVPVRDLKPAIVKVYDYYETDEFAIAEYNAPCSKDLGNA
Spreading on: PLYS (% of control on PLYS) (C6 cells; inhibitor 3.0 μM): 70 % of control on PLYS | Spreading on: CNS (% of control on PLYS) (C6 cells; inhibitor 3.0 μM, CNS myelin): 52 % of control on PLYS | Inhibition on CNS (%) (C6 cells; inhibitor 3.0 μM, PLYS value minus CNS myelin value): 18%
